Measured values as given in patent publication US20130040903A1, “PHARMACEUTICAL COMPOSITIONS FOR TREATING DEPRESSION AND ANXIETY” (priority 2007, published 2013).

Legend:
Kunming (KM) mice = experiment: Mouse light-dark transition experiment (Experiments 3, 10); type: in vivo; settings: 2.5 mg/kg into the stomach once daily 7 days, within 10 minutes
Protocol: 3.5.1 Group division and administration of drug: The mice are grouped randomly as 5 groups, and 10 mice are in each group. 1. High dose of Embodiment 1 (80 mg/kg); 2. middle dose of Embodiment 1 (40 mg/kg); 3. low dose of Embodiment 1 (20 mg/kg); 4. Diazepam (2.5 mg/kg); and 5. physiological saline (normal saline, NS). The drugs are fed into the mouse stomach once every day, and the mouse is administered for continuous 7 days. In the period of administration, the mouse eats and drinks freely, and the experiment is proceeded after 1 hour of the last administration of drug on the eighth day.
Mouse light-dark transition test: The dark chamber occupies one third of the light-dark transition chamber (44 cm×21 cm×21 cm), and the top is capped. The light chamber occupies two third thereof and is illuminated brightly. […] The times that the mouse enters into the dark chamber and returns to the light chamber within 10 minutes are determined, and the times thereof are being the index for evaluating the anti-anxiety function of the drugs. […]
Mouse light-dark transition test: The dark chamber occupies one third of the light-dark transition chamber (44 cm×21 cm×21 cm), and the top is capped. […] The times that the mouse enters into the dark chamber and returns to the light chamber within 10 minutes are determined, and the times thereof are being the index for evaluating the anti-anxiety function of the drugs.

ICR mice = experiment: Resetpine-induced mouse body temperature decrease experiment (Experiments 2, 5, 7); type: in vivo; settings: Experiment 5; 3 mg/kg P.O. 7 days; 4 hours after Resetpine 2 mg/kg i.p.
Protocol: 2.5.1 Group division and administration of drug: The mice are grouped randomly, and 10 mice are in each group. 1. High dose of Embodiment 1 (80 mg/kg, P.O., administered for 7 days); 2. middle dose of Embodiment 1 (40 mg/kg, P.O., administered for 7 days); 3. low dose of Embodiment 1 (20 mg/kg, P.O., administered for 7 days); 4.
2.5.2 Experimental method: After 1 hour of the last administration of drug on the eighth day, the mouse's anal temperature is determined. Then 2 mg of Resetpine per kilogram of the body weight is given by intraperitoneal injection. After 4 hours of injecting Resetpine, mouse's anal temperature is determined once again. The depth and time of injecting the thermometer into mouse's anus are identical in each temperature measurement.
5.5.1 Group division and administration of drug: The mice are grouped randomly, and 10 mice are in each group. 1. […]
5.5.2 Experimental method: After 1 hour of the last administration of drug on the eighth day, the mouse's anal temperature is determined. […] After 4 hours of injecting Resetpine, mouse's anal temperature is determined once again. […]
2.5.2 Experimental method: After 1 hour of the last administration of drug on the eighth day, the mouse's anal temperature is determined. […] After 4 hours of injecting Resetpine, mouse's anal temperature is determined once again. […]

SMILES | Times of passing from dark chamber to light chamber (Kunming (KM) mice; Experiment 3) | Times of passing from dark chamber to light chamber (Kunming (KM) mice; Experiment 10) | Time of non-movement (ICR mice) [s]
CN1C(=O)CN=C(c2ccccc2)c2cc(Cl)ccc21 [Diazepam] | 11.3 ± 4.54 | 11.7 ± 4.47 | –
Fc1ccc([C@@H]2CCNC[C@H]2COc2ccc3c(c2)OCO3)cc1 [Paroxetine] | – | – | 2.38 ± 0.69
